In US20080004290A1, “Anti-Cancer Agents” (THE UNIVERSITY OF QUEENSLAND, priority 2003, published 2008):
Where two headings read alike, the source gives them in different places.

Legend:
Type in all cases: cell-based, human
[1] = tested on: NFF, neonatal foreskin fibroblasts; test: Cell survival assay (clonogenic survival, SRB), normal cells; settings: Homo sapiens, Fibroblast, NFF normal fibroblasts; 24 h with compound, further 72 h growth, SRB; read-out: IC50 (uM) NFF
Procedure, shortened: (§1)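 Cells (5×10^3/well, RPMI 1640 with 10% FCS) treated 24 h with compound at 0.01-10 μg/mL, then washed and grown 72 h drug-free at 37 °C, 5% CO2. Survival read by SRB staining after methylated-spirit fixation, absorbance 564 nm.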

HT29 cells = test: Cell survival assay (SRB); settings: for IC50: Homo sapiens, HT-29, HT29 (colon), read-out: Cytoselectivities (nM) HT29; for Selectivity Index HT29: Table 13, S enantiomer, IC50(NFF)/IC50(cancer cell line)
Method: (§2) Cell Lines and Culture Medium. All cell lines used in this study have been described previously (Parsons et al., 1986; Todaro et al., 1980; Glenn et al., 2004). All cell lines were cultured in 10% heat-inactivated foetal calf serum (CSL, Australia) in RPMI 1640 medium supplemented with 100 U/mL penicillin, 100 μg/mL streptomycin, and 3 mM HEPES at 5% CO2, 99% humidity at 37° C. Primary human fibroblasts were obtained from neonatal foreskins and cultured in the above medium. Routine mycoplasma tests were performed using Hoechst stain^i and were always negative.
(§3) Cell Survival Assay. Cells were plated into 96-well microtitre plates at 5×10^3 cells/well, and allowed to adhere overnight. Test compounds were added to culture medium at the indicated concentrations, and plates incubated in the above conditions for 24 hours. Following this incubation period, compounds and media were removed, and replaced with fresh culture medium. Cells were then grown for a further 72 hours before assay using sulforhodamine B (SRB; Sigma, St. Louis, Mo.) as previously described. Briefly, the culture medium was removed from the 96-well microtitre plates and the plates washed twice with phosphate buffered saline (PBS), before the cells were fixed with methylated spirits for 15 minutes. The plates were then rinsed with tap water and the fixed cells stained with 50 μL/well of SRB solution (0.4% sulforhodamine B (w/v) in 1% (v/v) acetic acid) over a period of 1 hour. The SRB solution was then removed from the wells and the plates rapidly washed two times with 1% (v/v) acetic acid. Protein bound dye was then solubilised with the addition of 100 μL of 10 mM unbuffered Tris, and incubated for 15 min at 25° C. Plates were then read at 564 nm on a VERSA max tunable microplate reader (Molecular Devices, Sunnyvale, Calif.).

HOP62 cells = test: Cell survival assay (SRB); settings: for IC50: Homo sapiens, HOP-62, HOP62 (lung), read-out: Cytoselectivities (nM) HOP62; for Selectivity Index HOP62: Table 13, S enantiomer, IC50(NFF)/IC50(cancer cell line)
Method: as §2, §3

PC-3 cells = test: Cell survival assay (SRB); settings: for IC50: Homo sapiens, PC-3, read-out: Cytoselectivities (nM) PC-3; for Selectivity Index PC-3: Table 13, S enantiomer, IC50(NFF)/IC50(cancer cell line)
Method: as §2, §3

A549 cells = test: Cell survival assay (SRB); settings: for IC50: Homo sapiens, A549 (lung), read-out: Cytoselectivities (nM) A549; for Selectivity Index A549: Table 13, S enantiomer, IC50(NFF)/IC50(cancer cell line)
Method: as §2, §3

T-47D cells = test: Cell survival assay (SRB); settings: for IC50: Homo sapiens, T47D, read-out: Cytoselectivities (nM) T-47D; for Selectivity Index T-47D: Table 13, S enantiomer, IC50(NFF)/IC50(cancer cell line)
Method: as §2, §3

Col208 cells = test: Cell survival assay (SRB); settings: for IC50: Homo sapiens, Col208 (colon), read-out: Cytoselectivities (nM) Col208; for Selectivity Index Col208: Table 13, S enantiomer, IC50(NFF)/IC50(cancer cell line)
Method: as §2, §3

SK-MEL-5 cells = test: Cell survival assay (SRB); settings: for IC50: Homo sapiens, SK-MEL-5, read-out: Cytoselectivities (nM) SK-MEL-5; for Selectivity Index SK-MEL-5: Table 13, S enantiomer, IC50(NFF)/IC50(cancer cell line)
Method: as §2, §3

H520 cells = test: Cell survival assay (SRB); settings: for IC50: Homo sapiens, NCI-H520, read-out: Cytoselectivities (nM) H520; for Selectivity Index H520: Table 13, S enantiomer, IC50(NFF)/IC50(cancer cell line)
Method: as §2, §3

MM96L melanoma cells = test: Cell survival assay (clonogenic survival, SRB); settings: for IC50: Homo sapiens, MM96L; for SI (Selectivity Index = IC50 (NFF)/IC50 (MM96L)): NFF vs MM96L; for Selectivity Index MM96L: Table 13, S enantiomer, IC50(NFF)/IC50(cancer cell line)
Procedure, shortened: as §1

[2] = tested on: DU145 prostate cancer cells; test: Cell survival assay (SRB); settings: for IC50: Homo sapiens, DU-145, DU145 (prostate), read-out: Cytoselectivities (nM) DU145; for Selectivity Index DU145: Table 13, S enantiomer, IC50(NFF)/IC50(cancer cell line)
Method: as §2, §3
(§4) For comparison their results are also shown for MM96L and NFF cell lines.

[3] = tested on: CI-80-13S ovarian cancer cells; test: Cell survival assay (SRB); settings: for IC50: Homo sapiens, read-out: Cytoselectivities (nM) CI80-13S; for Selectivity Index CI80-13S: Table 13, S enantiomer, IC50(NFF)/IC50(cancer cell line)
Method: as §2, §3, §4

JAM ovarian cancer cells = test: Cell survival assay (SRB); settings: for IC50: Homo sapiens, read-out: Cytoselectivities (nM) JAM; for Selectivity Index JAM: Table 13, S enantiomer, IC50(NFF)/IC50(cancer cell line)
Method: as §2, §3, §4

[4] = tested on: MCF-7 breast cancer cells; test: Cell survival assay (SRB); settings: for IC50: Homo sapiens, MCF7, MCF-7 (breast), read-out: Cytoselectivities (nM) MCF-7; for Selectivity Index MCF-7: Table 13, S enantiomer, IC50(NFF)/IC50(cancer cell line)
Method: as §2, §3, §4

SkMel28 melanoma cells = test: Cell survival assay (SRB); settings: for IC50: Homo sapiens, SK-MEL-28 (melanoma), read-out: Cytoselectivities (nM) SK-MEL-28; for Selectivity Index SK-MEL-28: Table 13, S enantiomer, IC50(NFF)/IC50(cancer cell line)
Method: as §2, §3, §4

[5] = MM96L melanoma, 24 h with compound, further 72 h growth, SRB, read-out: IC50 (uM) MM96L
[6] = Table 12, read-out: Cytoselectivities (nM) MM96L
[7] = most preferred compounds, exemplary examples, read-out: potency of IC50 against the MM96 melanoma cells

SMILES	IC50 [1] [µM]	IC50 (HT29 cells) [nM]	Selectivity Index HT29 (HT29 cells)	IC50 (HOP62 cells) [nM]	Selectivity Index HOP62 (HOP62 cells)	IC50 (PC-3 cells) [nM]	Selectivity Index PC-3 (PC-3 cells)	IC50 (A549 cells) [nM]	Selectivity Index A549 (A549 cells)	IC50 (T-47D cells) [nM]	Selectivity Index T-47D (T-47D cells)	IC50 (Col208 cells) [nM]	Selectivity Index Col208 (Col208 cells)	IC50 (SK-MEL-5 cells) [nM]	Selectivity Index SK-MEL-5 (SK-MEL-5 cells)	IC50 (H520 cells) [nM]	Selectivity Index H520 (H520 cells)	IC50 (MM96L melanoma cells; [5]) [µM]	IC50 (MM96L melanoma cells; [6]) [µM]	SI (Selectivity Index = IC50 (NFF)/IC50 (MM96L)) (MM96L melanoma cells)	further results
O=C(CCCCC[C@H](NC(=O)OCc1ccccc1)C(=O)Nc1cccc2cccnc12)NO [Example 148]	0.452	334	1.4	226	2	528	0.9	248	2	93	5	122	4	70	6	118	4	0.043	0.108	10.5	IC50 (MM96L melanoma cells; [7]): ≤ 0.5 µM; Selectivity Index MM96L (MM96L melanoma cells): 4; IC50 [2]: 131 nM; Selectivity Index DU145 [2]: 3; IC50 [3]: 124 nM; Selectivity Index CI80-13S [3]: 4; IC50 (JAM ovarian cancer cells): 194 nM; Selectivity Index JAM (JAM ovarian cancer cells): 2; IC50 [4]: 122 nM; Selectivity Index MCF-7 [4]: 4; IC50 (SkMel28 melanoma cells): 146 nM; Selectivity Index SK-MEL-28 (SkMel28 melanoma cells): 3
O=C(CCCCC[C@H](NC(=O)c1cc2ccccc2[nH]1)C(=O)Nc1cccc2cccnc12)NO [Example 132]	0.337	79	4	63	5	148	2	69	5	19	18	102	3	18	18	26	13	0.021	0.018	16	IC50 (MM96L melanoma cells; [7]): ≤ 0.5 µM; Selectivity Index MM96L (MM96L melanoma cells): 19; IC50 [2]: 22 nM; Selectivity Index DU145 [2]: 15; IC50 [3]: 20 nM; Selectivity Index CI80-13S [3]: 17; IC50 (JAM ovarian cancer cells): 48 nM; Selectivity Index JAM (JAM ovarian cancer cells): 7; IC50 [4]: 19 nM; Selectivity Index MCF-7 [4]: 18; IC50 (SkMel28 melanoma cells): 33 nM; Selectivity Index SK-MEL-28 (SkMel28 melanoma cells): 10
CN(C)c1ccc(C(=O)N[C@@H](CCCCCC(=O)NO)C(=O)Nc2cccc3cccnc23)cc1 [Example 126]	0.57 ± 0.07	178	3	137	4	220	3	148	4	45	13	223	1.5	32	18	63	9	0.02 ± 0.01	0.051	28	IC50 (MM96L melanoma cells; [7]): ≤ 0.5 µM; Selectivity Index MM96L (MM96L melanoma cells): 11; IC50 [2]: 61 nM; Selectivity Index DU145 [2]: 9; IC50 [3]: 65 nM; Selectivity Index CI80-13S [3]: 9; IC50 (JAM ovarian cancer cells): 85 nM; Selectivity Index JAM (JAM ovarian cancer cells): 7; IC50 [4]: 35 nM; Selectivity Index MCF-7 [4]: 16; IC50 (SkMel28 melanoma cells): 73 nM; Selectivity Index SK-MEL-28 (SkMel28 melanoma cells): 8
CC(C)COC(=O)N[C@@H](CCCCCC(=O)NO)C(=O)Nc1cccc2cccnc12 [Example 149]	0.081	360	0.2	267	0.3	651	0.1	291	0.3	198	0.4	395	0.2	100	0.8	129	0.6	0.023	0.116	3.5	Selectivity Index MM96L (MM96L melanoma cells): 0.7; IC50 [2]: 130 nM; Selectivity Index DU145 [2]: 0.6; IC50 [3]: 149 nM; Selectivity Index CI80-13S [3]: 0.5; IC50 (JAM ovarian cancer cells): 221 nM; Selectivity Index JAM (JAM ovarian cancer cells): 0.4; IC50 [4]: 138 nM; Selectivity Index MCF-7 [4]: 0.6; IC50 (SkMel28 melanoma cells): 170 nM; Selectivity Index SK-MEL-28 (SkMel28 melanoma cells): 0.5
O=C(CCCCC[C@H](NC(=O)c1ccc(Br)cc1)C(=O)Nc1ccc(-c2ccccc2)cc1)NO [Example 161]	0.185	307	0.6	261	0.7	531	0.3	335	0.6	197	0.9	272	0.6	102	1.8	117	1.6	0.074	0.121	2.5	Selectivity Index MM96L (MM96L melanoma cells): 1.5; IC50 [2]: 149 nM; Selectivity Index DU145 [2]: 1.2; IC50 [3]: 158 nM; Selectivity Index CI80-13S [3]: 1.2; IC50 (JAM ovarian cancer cells): 182 nM; Selectivity Index JAM (JAM ovarian cancer cells): 1.0; IC50 [4]: 149 nM; Selectivity Index MCF-7 [4]: 1.2; IC50 (SkMel28 melanoma cells): 168 nM; Selectivity Index SK-MEL-28 (SkMel28 melanoma cells): 1.1
O=C(/C=C/c1ccccc1)N[C@@H](CCCCCC(=O)NO)C(=O)Nc1cccc2cccnc12 [Example 146]	1.24	99	13	65	19	109	11	73	17	20	63	141	9	29	43	27	46	0.021	0.02	58.9	IC50 (MM96L melanoma cells; [7]): ≤ 0.5 µM; Selectivity Index MM96L (MM96L melanoma cells): 63; IC50 [2]: 30 nM; Selectivity Index DU145 [2]: 41; IC50 [3]: 28 nM; Selectivity Index CI80-13S [3]: 44; IC50 (JAM ovarian cancer cells): 49 nM; Selectivity Index JAM (JAM ovarian cancer cells): 25; IC50 [4]: 17 nM; Selectivity Index MCF-7 [4]: 71; IC50 (SkMel28 melanoma cells): 37 nM; Selectivity Index SK-MEL-28 (SkMel28 melanoma cells): 34
